In PubChem BioAssay AID1259407 (Chemical Carcinogenesis Research Information System (CCRIS), 2018):
The source made the active and inactive calls. The rule behind the calls is not given here.

Tested on: CCRIS mutagenicity, Ames/micronucleus/aberration tests
Experiment: CCRIS mutagenicity studies
[1] = Test System: AMES SALMONELLA TYPHIMURIUM, Strain/Indicator: TA98, Metabolic Activation: NONE, Method: PREINCUBATION
[2] = Test System: AMES SALMONELLA TYPHIMURIUM, Strain/Indicator: TA100, Metabolic Activation: NONE, Method: PREINCUBATION
[3] = Test System: AMES SALMONELLA TYPHIMURIUM, Strain/Indicator: TA98, Metabolic Activation: NONE, Method: STANDARD PLATE
[4] = Test System: AMES SALMONELLA TYPHIMURIUM, Strain/Indicator: TA98, Metabolic Activation: RAT, LIVER, S-9, AROCLOR 1254, Method: STANDARD PLATE
[5] = Test System: AMES SALMONELLA TYPHIMURIUM, Strain/Indicator: TA100, Metabolic Activation: NONE, Method: STANDARD PLATE
[6] = Test System: AMES SALMONELLA TYPHIMURIUM, Strain/Indicator: TA100, Metabolic Activation: RAT, LIVER, S-9, AROCLOR 1254, Method: STANDARD PLATE

In the case of `Cc1cc2nc3c(=O)[nH]c(=O)nc-3n(C[C@H](O)[C@H](O)[C@H](O)CO)c2cc1C`, the mutagenic call (End Point: IN VIVO MICRONUCLEUS, Test System: BONE MARROW POLYCHROMATIC ERYTHROCYTES, Species: MOUSE, Strain/Sex: DDY/MALE, Route: IP) is reported as “inactive; negative”, the mutagenic call (Test System: AMES SALMONELLA TYPHIMURIUM, Strain/Indicator: TA97A, Metabolic Activation: NONE, Method: PREINCUBATION) is reported as “inactive; negative” and the mutagenic call (Test System: AMES SALMONELLA TYPHIMURIUM, Strain/Indicator: TA97A, Metabolic Activation: RAT, CECAL CELL-FREE EXTRACT, Method: PREINCUBATION) is reported as “inactive; negative”. For the same molecule, the mutagenic call (Test System: AMES SALMONELLA TYPHIMURIUM, Strain/Indicator: TA97A, Metabolic Activation: RAT, LIVER, S9, AROCLOR 1254, Method: PREINCUBATION) was “inactive; negative”, the mutagenic call [1] was “inactive; negative” and the mutagenic call (Test System: AMES SALMONELLA TYPHIMURIUM, Strain/Indicator: TA98, Metabolic Activation: RAT, CECAL CELL-FREE EXTRACT, Method: PREINCUBATION) was “inactive; negative”. The mutagenic call (Test System: AMES SALMONELLA TYPHIMURIUM, Strain/Indicator: TA98, Metabolic Activation: RAT, LIVER, S9, AROCLOR 1254, Method: PREINCUBATION) was “inactive; negative”, the mutagenic call [2] was “inactive; negative” and the mutagenic call (Test System: AMES SALMONELLA TYPHIMURIUM, Strain/Indicator: TA100, Metabolic Activation: RAT, CECAL CELL-FREE EXTRACT, Method: PREINCUBATION) was “inactive; negative”. For the same molecule, the mutagenic call (Test System: AMES SALMONELLA TYPHIMURIUM, Strain/Indicator: TA100, Metabolic Activation: RAT, LIVER, S9, AROCLOR 1254, Method: PREINCUBATION) was “inactive; negative” and the mutagenic call (Test System: AMES SALMONELLA TYPHIMURIUM, Strain/Indicator: TA102, Metabolic Activation: RAT, LIVER, S9, AROCLOR 1254, Method: PREINCUBATION) was “inactive; negative”.

In the case of `O=S(O)(O)=S`, the mutagenic call [3] is reported as “inactive; negative”, the mutagenic call [4] is reported as “inactive; negative” and the mutagenic call [5] is reported as “inactive; negative”. For the same molecule, the mutagenic call [6] was “inactive; negative”, the mutagenic call (Test System: AMES SALMONELLA TYPHIMURIUM, Strain/Indicator: TA1535, Metabolic Activation: NONE, Method: STANDARD PLATE) was “inactive; negative” and the mutagenic call (Test System: AMES SALMONELLA TYPHIMURIUM, Strain/Indicator: TA1535, Metabolic Activation: RAT, LIVER, S-9, AROCLOR 1254, Method: STANDARD PLATE) was “inactive; negative”. For the same molecule, the mutagenic call (Test System: AMES SALMONELLA TYPHIMURIUM, Strain/Indicator: TA1537, Metabolic Activation: NONE, Method: STANDARD PLATE) was “inactive; negative”, the mutagenic call (Test System: AMES SALMONELLA TYPHIMURIUM, Strain/Indicator: TA1537, Metabolic Activation: RAT, LIVER, S-9, AROCLOR 1254, Method: STANDARD PLATE) was “inactive; negative” and the mutagenic call (Test System: AMES SALMONELLA TYPHIMURIUM, Strain/Indicator: TA1538, Metabolic Activation: NONE, Method: STANDARD PLATE) was “inactive; negative”. For the same molecule, the mutagenic call (Test System: AMES SALMONELLA TYPHIMURIUM, Strain/Indicator: TA1538, Metabolic Activation: RAT, LIVER, S-9, AROCLOR 1254, Method: STANDARD PLATE) was “inactive; negative”, the mutagenic call (Test System: E. COLI, Strain/Indicator: WP2, Metabolic Activation: NONE, Method: STANDARD PLATE) was “inactive; negative” and the mutagenic call (Test System: E. COLI, Strain/Indicator: WP2, Metabolic Activation: RAT, LIVER, S-9, AROCLOR 1254, Method: STANDARD PLATE) was “inactive; negative”.

In the case of `CN(C)c1ccc(C(=N)c2ccc(N(C)C)cc2)cc1`, the mutagenic call (Test System: AMES SALMONELLA TYPHIMURIUM, Strain/Indicator: TA97, Metabolic Activation: NONE, Method: STANDARD PLATE) is reported as “inactive; negative”, the mutagenic call (Test System: AMES SALMONELLA TYPHIMURIUM, Strain/Indicator: TA97, Metabolic Activation: RAT, LIVER, S-9, AROCLOR 1254, Method: STANDARD PLATE) is reported as “inactive; negative” and the mutagenic call (Test System: AMES SALMONELLA TYPHIMURIUM, Strain/Indicator: TA98, Metabolic Activation: HAMSTER, LIVER, S-9, AROCLOR 1254 (30%), Method: PREINCUBATION) is reported as “active; positive”. For the same molecule, the mutagenic call [1] was “inactive; negative”, the mutagenic call [3] was “inactive; negative” and the mutagenic call (Test System: AMES SALMONELLA TYPHIMURIUM, Strain/Indicator: TA98, Metabolic Activation: RAT, LIVER, S-9, AROCLOR 1254 (30%), Method: PREINCUBATION) was “active; positive”. The mutagenic call [4] was “inactive; negative”, the mutagenic call (Test System: AMES SALMONELLA TYPHIMURIUM, Strain/Indicator: TA100, Metabolic Activation: HAMSTER, LIVER, S-9, AROCLOR 1254 (30%), Method: PREINCUBATION) was “inactive; negative” and the mutagenic call [2] was “inactive; negative”. The mutagenic call [5] was “inactive; negative”, the mutagenic call (Test System: AMES SALMONELLA TYPHIMURIUM, Strain/Indicator: TA100, Metabolic Activation: RAT, LIVER, S-9, AROCLOR 1254 (30%), Method: PREINCUBATION) was “inactive; negative” and the mutagenic call [6] was “inactive; negative”. For the same molecule, the mutagenic call (Test System: AMES SALMONELLA TYPHIMURIUM, Strain/Indicator: TA1538, Metabolic Activation: HAMSTER, LIVER, S-9, AROCLOR 1254 (30%), Method: PREINCUBATION) was “active; positive”, the mutagenic call (Test System: AMES SALMONELLA TYPHIMURIUM, Strain/Indicator: TA1538, Metabolic Activation: RAT, LIVER, S-9, AROCLOR 1254 (30%), Method: PREINCUBATION) was “active; positive” and the mutagenic call (Test System: CHINESE HAMSTER V-79, Strain/Indicator: V-79/6-THIOGUANINE, Metabolic Activation: NONE, Method: SUSPENSION/PLATE) was “inactive; negative”. For the same molecule, the mutagenic call (Test System: CHINESE HAMSTER V-79, Strain/Indicator: V-79/6-THIOGUANINE, Metabolic Activation: RAT, LIVER, S-9, PHENOBARBITAL AND BETA-NAPHTHOFLAVONE, Method: SUSPENSION/PLATE) was “active; positive”.

In the case of `CC1=C(N=O)CNc2c1nc1c(C)cccn21`, the mutagenic call [3] is reported as “active; positive”, the mutagenic call (Test System: AMES SALMONELLA TYPHIMURIUM, Strain/Indicator: TA98, Metabolic Activation: RAT, LIVER, CYTOSOL, AROCLOR 1254, Method: STANDARD PLATE) is reported as “active; positive” and the mutagenic call (Test System: AMES SALMONELLA TYPHIMURIUM, Strain/Indicator: TA98, Metabolic Activation: RAT, LIVER, MICROSOMES, AROCLOR 1254, Method: STANDARD PLATE) is reported as “active; positive”. For the same molecule, the mutagenic call [4] was “active; positive”.

For `O=c1c2ccccc2c(=O)c2c1ccc1c3ccc4c(=O)c5c(ccc6c7ccc8c(=O)c9ccccc9c(=O)c8c7[nH]c65)c(=O)c4c3[nH]c12`, the mutagenic call (Test System: Ames Salmonella typhimurium, Strain/Indicator: TA98, Metabolic Activation: None, Method: Preincubation) was “active; positive”, the mutagenic call (Test System: Ames Salmonella typhimurium, Strain/Indicator: TA100, Metabolic Activation: None, Method: Preincubation) was “inactive; negative” and the mutagenic call (Test System: Ames Salmonella typhimurium, Strain/Indicator: TA102, Metabolic Activation: None, Method: Preincubation) was “inactive; negative”. The mutagenic call (Test System: Ames Salmonella typhimurium, Strain/Indicator: TA1535, Metabolic Activation: None, Method: Preincubation) was “inactive; negative”.

With `O=C1OC(=C(Cl)Cl)C(Cl)=C1Cl` the mutagenic call [5] was “active; positive”.

For `Cc1ccc2cc3c(ccc4ccccc43)c3c2c1C(O)C3` (stereo not drawn), the mutagenic call (Test System: CHINESE HAMSTER V-79, Strain/Indicator: V-79/8-AZAGUANINE, Metabolic Activation: RAT, LIVER, S-9, AROCLOR 1254, Method: STANDARD PLATE) was “active; positive”.

In the case of `Nc1ccc2c3c(cccc13)-c1ccccc1-2`, the mutagenic call (Test System: AMES SALMONELLA TYPHIMURIUM, Strain/Indicator: TA98, Metabolic Activation: RAT, LIVER, S-9, AROCLOR 1254 (2 OR 4%), Method: STANDARD PLATE) is reported as “active; positive”, the mutagenic call (Test System: AMES SALMONELLA TYPHIMURIUM, Strain/Indicator: TA100, Metabolic Activation: RAT, LIVER, S-9, AROCLOR 1254 (4%), Method: STANDARD PLATE) is reported as “active; positive” and the mutagenic call (Test System: AMES SALMONELLA TYPHIMURIUM, Strain/Indicator: TA1535, Metabolic Activation: RAT, LIVER, S-9, AROCLOR 1254 (4%), Method: STANDARD PLATE) is reported as “inactive; negative”. For the same molecule, the mutagenic call (Test System: AMES SALMONELLA TYPHIMURIUM, Strain/Indicator: TA1537, Metabolic Activation: RAT, LIVER, S-9, AROCLOR 1254 (4%), Method: STANDARD PLATE) was “active; positive”.
